Assay [1] relates to Phosphorylated Ribosomal Protein S6 (RPS6) in THP-1 cells. Kind of assay: THP-1 RPS6 ELISA assay. The assay is classed as cell-based, human. To be noted: 10 nM MCP-1, read-out: PI3Kγ_THP1_RPS6_ELISA IC50.
Assay [2] has as its target PI3Kδ (p110δ/p85α) Recombinant Human Protein (Homo sapiens (Human), UniProt O00329). Kind of assay: PI3Kδ scintillation proximity assay. To be noted: 2 μM ATP, 20 μM PIP2. The assay is classed as biochemical. In general terms: SPA uses beads or plates that emit light when radiolabelled molecules are held near them.
For assay [3], the target named is PI3Kγ (p110γ) Recombinant Human Protein (Homo sapiens (Human), UniProt P48736). Kind of assay: PI3K-γ scintillation proximity assay. To be noted: 2 μM ATP, 20 μM PIP2. In kind it is biochemical.
Sequence of PI3Kγ (p110γ) Recombinant Human Protein (P48736 whole entry): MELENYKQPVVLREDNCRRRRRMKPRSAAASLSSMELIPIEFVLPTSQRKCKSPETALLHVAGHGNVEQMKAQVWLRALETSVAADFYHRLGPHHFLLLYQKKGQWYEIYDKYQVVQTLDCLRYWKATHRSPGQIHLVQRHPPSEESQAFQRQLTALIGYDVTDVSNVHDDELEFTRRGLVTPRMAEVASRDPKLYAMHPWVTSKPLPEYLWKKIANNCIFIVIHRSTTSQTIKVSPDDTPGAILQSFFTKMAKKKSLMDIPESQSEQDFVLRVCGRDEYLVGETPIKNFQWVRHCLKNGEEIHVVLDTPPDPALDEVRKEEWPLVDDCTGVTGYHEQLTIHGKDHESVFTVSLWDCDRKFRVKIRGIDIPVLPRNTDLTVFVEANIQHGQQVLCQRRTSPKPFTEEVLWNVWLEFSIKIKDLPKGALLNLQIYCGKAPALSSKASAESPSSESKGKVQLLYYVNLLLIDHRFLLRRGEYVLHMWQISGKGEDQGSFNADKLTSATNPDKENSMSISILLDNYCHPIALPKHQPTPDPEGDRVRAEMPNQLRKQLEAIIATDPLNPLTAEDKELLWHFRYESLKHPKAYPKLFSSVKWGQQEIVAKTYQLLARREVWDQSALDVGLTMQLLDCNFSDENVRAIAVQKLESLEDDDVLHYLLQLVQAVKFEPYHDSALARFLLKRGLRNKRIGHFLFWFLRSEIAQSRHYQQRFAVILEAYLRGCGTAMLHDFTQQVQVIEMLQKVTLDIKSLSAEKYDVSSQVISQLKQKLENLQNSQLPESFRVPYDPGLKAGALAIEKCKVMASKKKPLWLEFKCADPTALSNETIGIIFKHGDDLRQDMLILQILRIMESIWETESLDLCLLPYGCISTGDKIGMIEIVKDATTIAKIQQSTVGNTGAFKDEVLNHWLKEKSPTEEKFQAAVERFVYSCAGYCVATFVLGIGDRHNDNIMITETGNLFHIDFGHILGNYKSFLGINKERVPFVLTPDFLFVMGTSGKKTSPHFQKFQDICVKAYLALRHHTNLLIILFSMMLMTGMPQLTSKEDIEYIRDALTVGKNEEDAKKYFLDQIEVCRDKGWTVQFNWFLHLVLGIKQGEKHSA
Where [4] appears, read: Homo sapiens, THP-1, THP-1 cells.

This passage reports IC50 results from patent publication US10065963B2 (Incyte Corporation, priority 2015, dated 2018).

Counter-ions that a name gives are not always drawn. Like-named read-outs stand apart in the source and are kept apart here.

Sequence of PI3Kδ (p110δ/p85α) Recombinant Human Protein (O00329 whole entry): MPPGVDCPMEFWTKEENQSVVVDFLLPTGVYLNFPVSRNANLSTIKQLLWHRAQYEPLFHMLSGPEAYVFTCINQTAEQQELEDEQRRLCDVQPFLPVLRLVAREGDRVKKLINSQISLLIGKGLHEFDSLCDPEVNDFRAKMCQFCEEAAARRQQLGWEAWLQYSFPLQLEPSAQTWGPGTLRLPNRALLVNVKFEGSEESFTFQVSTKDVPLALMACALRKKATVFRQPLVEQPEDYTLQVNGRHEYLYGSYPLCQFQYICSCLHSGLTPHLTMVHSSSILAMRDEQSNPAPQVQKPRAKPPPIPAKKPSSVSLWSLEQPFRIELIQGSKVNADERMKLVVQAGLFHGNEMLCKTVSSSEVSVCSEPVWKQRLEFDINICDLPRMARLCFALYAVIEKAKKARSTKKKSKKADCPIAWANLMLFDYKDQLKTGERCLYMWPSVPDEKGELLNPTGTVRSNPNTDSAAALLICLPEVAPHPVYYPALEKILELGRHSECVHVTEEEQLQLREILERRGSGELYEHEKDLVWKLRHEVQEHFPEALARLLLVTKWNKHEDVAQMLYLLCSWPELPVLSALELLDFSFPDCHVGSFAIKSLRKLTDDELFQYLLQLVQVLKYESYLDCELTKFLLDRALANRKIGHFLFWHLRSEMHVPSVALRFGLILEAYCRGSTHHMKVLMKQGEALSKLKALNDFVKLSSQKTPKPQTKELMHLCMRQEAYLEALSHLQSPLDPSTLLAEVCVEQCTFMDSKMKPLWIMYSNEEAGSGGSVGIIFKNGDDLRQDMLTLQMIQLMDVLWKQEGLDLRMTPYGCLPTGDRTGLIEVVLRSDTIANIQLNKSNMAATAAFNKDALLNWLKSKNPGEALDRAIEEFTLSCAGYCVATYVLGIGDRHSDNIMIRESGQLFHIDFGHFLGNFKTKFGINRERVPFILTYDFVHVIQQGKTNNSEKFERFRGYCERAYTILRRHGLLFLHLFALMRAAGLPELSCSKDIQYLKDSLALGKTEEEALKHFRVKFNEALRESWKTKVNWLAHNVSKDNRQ
Sequence of PI3Kδ (p110δ/p85α) Recombinant Human Protein (P27986 whole entry partner): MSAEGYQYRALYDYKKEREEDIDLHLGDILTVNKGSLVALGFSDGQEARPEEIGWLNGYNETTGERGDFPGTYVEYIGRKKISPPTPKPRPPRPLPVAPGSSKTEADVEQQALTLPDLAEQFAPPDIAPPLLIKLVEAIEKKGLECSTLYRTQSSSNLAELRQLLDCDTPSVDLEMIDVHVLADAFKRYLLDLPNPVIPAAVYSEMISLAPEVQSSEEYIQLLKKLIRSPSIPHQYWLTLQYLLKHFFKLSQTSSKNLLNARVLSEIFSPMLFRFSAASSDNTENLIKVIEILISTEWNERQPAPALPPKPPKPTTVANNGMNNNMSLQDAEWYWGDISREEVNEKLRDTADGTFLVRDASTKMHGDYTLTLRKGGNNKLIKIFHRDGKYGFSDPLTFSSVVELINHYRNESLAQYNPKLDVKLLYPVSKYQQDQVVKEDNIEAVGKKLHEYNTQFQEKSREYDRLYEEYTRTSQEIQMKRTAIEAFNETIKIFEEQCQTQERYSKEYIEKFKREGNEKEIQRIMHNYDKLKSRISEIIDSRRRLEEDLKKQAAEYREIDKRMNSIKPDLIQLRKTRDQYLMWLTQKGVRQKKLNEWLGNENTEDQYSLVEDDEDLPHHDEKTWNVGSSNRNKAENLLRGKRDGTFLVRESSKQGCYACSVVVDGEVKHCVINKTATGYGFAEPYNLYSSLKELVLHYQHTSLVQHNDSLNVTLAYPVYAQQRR

A word on the IC50: it is the point on the concentration scale where inhibition reaches its midpoint. On to `CC(=O)N[C@H]1CCN(c2c(C(C)NC(=O)c3c(N)nn4cccnc34)cc(Cl)c3cn[nH]c23)C1` (stereo partly drawn) [Example 95, N-(1-{7-[(3S)-3-(Acetylamino)pyrrolidin-1-yl]-4-chloro-2H-indazol-6-yl}ethyl)-2-aminopyrazolo[1,5-a]pyrimidine-3-carboxamide trifluoroacetate], for which the half-maximal inhibitory concentration (IC50) was under 1000 nM in assay [1] (setting [4]), under 100 nM in assay [2] and under 100 nM in assay [3].

For the compound `CC(NC(=O)c1c(N)nn2cccnc12)c1cc(Cl)c2cn[nH]c2c1N1CC[C@H](NS(C)(=O)=O)C1` (stereo partly drawn) [Example 96A, 2-Amino-N-[1-(4-chloro-7-{(3S)-3-[(methylsulfonyl)amino]pyrrolidin-1-yl}-2H-indazol-6-yl)ethyl]pyrazolo[1,5-a]pyrimidine-3-carboxamide trifluoroacetate], the concentration for half-maximal inhibition (IC50) is under 1000 nM in assay [1] (setting [4]), under 100 nM in assay [2] and under 100 nM in assay [3].

With `CC(NC(=O)c1c(N)nn2cccnc12)c1cc(Cl)c2cn[nH]c2c1N1CC[C@@H](NS(C)(=O)=O)C1` (stereo partly drawn) [Example 96B, 2-Amino-N-[1-(4-chloro-7-{(3R)-3-[(methylsulfonyl)amino]pyrrolidin-1-yl}-2H-indazol-6-yl)ethyl]pyrazolo[1,5-a]pyrimidine-3-carboxamide trifluoroacetate], the figures for the IC50 in assay [1] (setting [4]), in assay [2] and in assay [3] were over 1000 nM, under 100 nM and under 100 nM, respectively.

Consider `CCOC(=O)C1CC=C(c2c(C(C)NC(=O)c3c(N)nn4cccnc34)cc(Cl)c3cn[nH]c23)CC1` (stereo not drawn) [Example 97, Ethyl 4-[6-(1-{[(2-aminopyrazolo[1,5-a]pyrimidin-3-yl)carbonyl]amino}ethyl)-4-chloro-2H-indazol-7-yl]cyclohex-3-ene-1-carboxylate bistrifluoroacetate], for which the IC50 is under 1000 nM in assay [1] (setting [4]), under 500 nM in assay [2] and under 100 nM in assay [3].

In the case of `COC1CC=C(c2c(C(C)NC(=O)c3c(N)nn4cccnc34)cc(Cl)c3cn[nH]c23)CC1` (stereo not drawn) [Example 100, 2-Amino-N-{1-[4-chloro-7-(4-methoxycyclohex-1-en-1-yl)-2H-indazol-6-yl]ethyl}pyrazolo[1,5-a]pyrimidine-3-carboxamide trifluoroacetate], the figures for the IC50 in assay [1] (setting [4]), in assay [2] and in assay [3] were over 1000 nM, under 500 nM and under 100 nM, respectively.

As to `CC(NC(=O)c1c(N)nn2cccnc12)c1cc(Cl)c2cn[nH]c2c1C1=CCC(C#N)CC1` (stereo not drawn) [Example 101, 2-Amino-N-{1-[4-chloro-7-(4-cyanocyclohex-1-en-1-yl)-2H-indazol-6-yl]ethyl}pyrazolo[1,5-a]pyrimidine-3-carboxamide trifluoroacetate], the IC50 in assay [1] (setting [4]) was under 500 nM; in assay [2], under 500 nM; in assay [3], under 100 nM.

`COC(=O)C1CCN(c2c(C(C)NC(=O)c3c(N)nn4cccnc34)cc(Cl)c3cn[nH]c23)C1` (stereo not drawn) [Example 102, Methyl 1-[6-(1-{[(2-aminopyrazolo[1,5-a]pyrimidin-3-yl)carbonyl]amino}ethyl)-4-chloro-2H-indazol-7-yl]pyrrolidine-3-carboxylate trifluoroacetate]: the IC50 is over 1000 nM in assay [1] (setting [4]), under 500 nM in assay [2] and under 100 nM in assay [3].

For `CC(=O)N[C@H]1CCCN(c2c(C(C)NC(=O)c3c(N)nn4cccnc34)cc(Cl)c3cn[nH]c23)C1` (stereo partly drawn) [Example 104, N-(1-(7-((S)-3-Acetamidopiperidin-1-yl)-4-chloro-1H-indazol-6-yl)ethyl)-2-aminopyrazolo[1,5-a]pyrimidine-3-carboxamide trifluoroacetate], the figures for the IC50 in assay [1] (setting [4]), in assay [2] and in assay [3] were under 500 nM, under 100 nM and under 100 nM, respectively.

Take `CC(NC(=O)c1c(N)nn2cccnc12)c1cc(Cl)c2cn[nH]c2c1N1CCC[C@H](NS(C)(=O)=O)C1` (stereo partly drawn) [Example 105, 2-Amino-N-[1-(4-chloro-7-{(3S)-3-[(methylsulfonyl)amino]piperidin-1-yl}-2H-indazol-6-yl)ethyl]pyrazolo[1,5-a]pyrimidine-3-carboxamide trifluoroacetate]: the IC50 is under 500 nM in assay [1] (setting [4]), under 100 nM in assay [2] and under 100 nM in assay [3].

As to `CCOC(=O)C1CCN(c2c(C(C)NC(=O)c3c(N)nn4cccnc34)cc(Cl)c3cn[nH]c23)CC1` (stereo not drawn) [Example 106, Ethyl 1-[6-(1-{[(2-aminopyrazolo[1,5-a]pyrimidin-3-yl)carbonyl]amino}ethyl)-4-chloro-2H-indazol-7-yl]piperidine-4-carboxylate trifluoroacetate], the IC50 in assay [1] (setting [4]) was over 1000 nM; in assay [2], under 500 nM; in assay [3], under 100 nM.

`CNC(=O)C1CCN(c2c(C(C)NC(=O)c3c(N)nn4cccnc34)cc(Cl)c3cn[nH]c23)CC1` (stereo not drawn) [Example 107, 2-Amino-N-[1-(4-chloro-7-{4-[(methylamino)carbonyl]piperidin-1-yl}-2H-indazol-6-yl)ethyl]pyrazolo[1,5-a]pyrimidine-3-carboxamide trifluoroacetate]: the IC50 is under 500 nM in assay [1] (setting [4]), under 500 nM in assay [2] and under 100 nM in assay [3].

`CC(NC(=O)c1c(N)nn2cccnc12)c1cc(Cl)c2ccnn2c1N1CCCS(=O)(=O)CC1` (stereo not drawn) [Example 109, 2-Amino-N-{1-[4-chloro-7-(1,1-dioxido-1,4-thiazepan-4-yl)pyrazolo[1,5-a]pyridin-6-yl]ethyl}pyrazolo[1,5-a]pyrimidine-3-carboxamide trifluoroacetate]: the values for the IC50 in assay [1] (setting [4]), in assay [2] and in assay [3] were under 500 nM, under 100 nM and under 100 nM, respectively.

On to `CC(NC(=O)c1c(N)nn2cccnc12)c1cc(Cl)c2ccnn2c1N1CCNS(=O)(=O)CC1` (stereo not drawn) [Example 110, 2-Amino-N-{1-[4-chloro-7-(1,1-dioxido-1,2,5-thiadiazepan-5-yl)pyrazolo[1,5-a]pyridin-6-yl]ethyl}pyrazolo[1,5-a]pyrimidine-3-carboxamide trifluoroacetate], for which the IC50 in assay [1] (setting [4]) is under 500 nM; in assay [2] it was under 100 nM; in assay [3], under 100 nM.

As to `CC(NC(=O)c1c(N)nn2cccnc12)c1cc(Cl)c2ccnn2c1N1CCS(=O)(=O)C(C)(C)C1` (stereo not drawn) [Example 111, 2-Amino-N-{1-[4-chloro-7-(2,2-dimethyl-1,1-dioxidothiomorpholin-4-yl)pyrazolo[1,5-a]pyridin-6-yl]ethyl}pyrazolo[1,5-a]pyrimidine-3-carboxamide trifluoroacetate], the IC50 in assay [1] (setting [4]) was under 500 nM; in assay [2], under 100 nM; in assay [3], under 100 nM.

Turning to `CC(NC(=O)c1c(N)nn2cccnc12)c1cc(Cl)c2c(Cl)cnn2c1N1CCS(=O)(=O)C(C)C1` (stereo not drawn) [Example 112A, 2-Amino-N-{1-[3,4-dichloro-7-(2-methyl-1,1-dioxidothiomorpholin-4-yl)pyrazolo[1,5-a]pyridin-6-yl]ethyl}pyrazolo[1,5-a]pyrimidine-3-carboxamide trifluoroacetate], the IC50 in assay [1] (setting [4]) is under 500 nM; in assay [2], under 100 nM; in assay [3], under 100 nM.

Consider `CC(NC(=O)c1c(N)nn2cccnc12)c1cc(Cl)c2c(Cl)cnn2c1N1CCS(=O)(=O)CC1` (stereo not drawn) [Example 113, 2-Amino-N-{1-[3,4-dichloro-7-(1,1-dioxidothiomorpholin-4-yl)pyrazolo[1,5-a]pyridin-6-yl]ethyl}pyrazolo[1,5-a]pyrimidine-3-carboxamide trifluoroacetate], for which the IC50 is under 500 nM in assay [1] (setting [4]), under 100 nM in assay [2] and under 100 nM in assay [3].

Take `CC(NC(=O)c1c(N)nn2cccnc12)c1cc(Cl)c2c(Cl)cnn2c1N1CCCS(=O)(=O)CC1` (stereo not drawn) [Example 114, 2-Amino-N-{1-[3,4-dichloro-7-(1,1-dioxido-1,4-thiazepan-4-yl)pyrazolo[1,5-a]pyridin-6-yl]ethyl}pyrazolo[1,5-a]pyrimidine-3-carboxamide trifluoroacetate]: the IC50 was under 500 nM in assay [1] (setting [4]), under 100 nM in assay [2] and under 100 nM in assay [3].

In the case of `CC(NC(=O)c1c(N)nn2cccnc12)c1cc(Cl)c2c(Cl)cnn2c1N1CCNS(=O)(=O)CC1` (stereo not drawn) [Example 115, 2-Amino-N-{1-[3,4-dichloro-7-(1,1-dioxido-1,2,5-thiadiazepan-5-yl)pyrazolo[1,5-a]pyridin-6-yl]ethyl}pyrazolo[1,5-a]pyrimidine-3-carboxamide trifluoroacetate], the figures for the IC50 in assay [1] (setting [4]), in assay [2] and in assay [3] were under 500 nM, under 100 nM and under 100 nM, respectively.

`CC(NC(=O)c1c(N)nn2cccnc12)c1cc(Cl)c2c(Cl)cnn2c1N1CCS(=O)(=O)C(C)(C)C1` (stereo not drawn) [Example 116, 2-Amino-N-{1-[3,4-dichloro-7-(2,2-dimethyl-1,1-dioxidothiomorpholin-4-yl)pyrazolo[1,5-a]pyridin-6-yl]ethyl}pyrazolo[1,5-a]pyrimidine-3-carboxamide trifluoroacetate]: the values for the IC50 in assay [1] (setting [4]), in assay [2] and in assay [3] were under 500 nM, under 100 nM and under 100 nM, respectively.

Turning to `COc1cncc(-c2c(C(C)NC(=O)c3c(N)nn4cccnc34)cc(Cl)c3cncn23)c1` (stereo not drawn) [Example 134, 2-Amino-N-{1-[8-chloro-5-(5-methoxypyridin-3-yl)imidazo[1,5-d]pyridin-6-yl]ethyl}pyrazolo[1,5-a]pyrimidine-3-carboxamide trifluoroacetate salt], the IC50 was over 1000 nM in assay [1] (THP-1 cells), under 500 nM in assay [2] and under 100 nM in assay [3].

`COC1CCN(c2c(C(C)NC(=O)c3c(N)nn4cccnc34)cc(Cl)c3cncn23)C1` (stereo not drawn) [Example 144, 2-Amino-N-{1-[8-chloro-5-(3-methoxypyrrolidin-1-yl)imidazo[1,5-a]pyridin-6-yl]ethyl}pyrazolo[1,5-a]pyrimidine-3-carboxamide trifluoroacetate salt]: the IC50 was under 500 nM in assay [1] (setting [4]), under 500 nM in assay [2] and under 100 nM in assay [3].
